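The compound was tested at five concentrations on cells cultured in 96-well plates, with a 48-hour exposure period. GI50 = concentration required for 50% inhibition of growth. The concentration for full growth arrest is given as TGI.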
Key:
Assay in all cases: NCI-60 cell line screen, 48 h
MCF7 breast = test system: MCF7 breast
T-47D breast = test system: T-47D breast
UACC-62 melanoma = test system: UACC-62 melanoma
A549 NSCLC = test system: A549 NSCLC
UO-31 renal = test system: UO-31 renal
A498 renal = test system: A498 renal
SK-MEL-5 melanoma = test system: SK-MEL-5 melanoma
PC-3 prostate = test system: PC-3 prostate
HCT-116 colon = test system: HCT-116 colon
RXF 393 renal = test system: RXF 393 renal

Structure (SMILES) | TGI (MCF7 breast) | TGI (T-47D breast) | TGI (UACC-62 melanoma) | TGI (A549 NSCLC) | TGI (UO-31 renal) | TGI (A498 renal) | TGI (SK-MEL-5 melanoma) | TGI (PC-3 prostate) | TGI (HCT-116 colon) | TGI (RXF 393 renal) | GI50 (MCF7 breast) | GI50 (T-47D breast) | GI50 (UACC-62 melanoma) | GI50 (A549 NSCLC) | GI50 (UO-31 renal) | GI50 (A498 renal) | GI50 (SK-MEL-5 melanoma) | GI50 (PC-3 prostate) | GI50 (HCT-116 colon) | GI50 (RXF 393 renal)
CC(C)OC(=S)Nc1ccc(Cl)c(/C=N/OC(C)(C)C)c1 | 51 µM | 38.7 µM | 30.9 µM | 40 µM | 27.2 µM | 28.2 µM | 31.8 µM | 38.1 µM | 29.9 µM | 30.9 µM |  |  |  |  |  |  |  |  |  | 
CS(=O)(=O)OCCCNCCCOS(C)(=O)=O | 5320 µM | 6740 µM | 4260 µM | 4550 µM | 6430 µM | 3630 µM | 3220 µM | 5620 µM | 5670 µM | 5480 µM |  |  |  |  |  |  |  |  |  | 
CCCc1cc(=O)n2c(C(=O)Nc3ccc(F)cc3)c(C(=O)Nc3ccc(F)cc3)sc2n1 | > 160 µM | > 160 µM | > 160 µM | 40 µM | 101 µM | 137 µM | > 160 µM | > 160 µM | > 160 µM | 13 µM | 54.8 µM | 87 µM | 36.8 µM | 17.5 µM | 27.6 µM | 46.4 µM | > 160 µM | 30.1 µM | 18.3 µM | 4.41 µM
Cc1ccc(-c2nc(/C=N/Nc3cc(C)nc4ccc(Cl)cc34)c(C)o2)cc1 | 3.2 µM | 3.72 µM | 3.43 µM | 3.77 µM | 2.98 µM | 3.77 µM | 3.15 µM | 5.65 µM | 3.23 µM | 2.94 µM | 1.63 µM | 1.8 µM | 1.77 µM | 1.83 µM | 1.62 µM | 1.61 µM | 1.76 µM | 2.26 µM | 1.79 µM | 1.45 µM
COc1cc(/C=C/c2ccc(O)c(OC)c2)cc(OC)c1 | > 100 µM | > 100 µM |  | > 100 µM | 66.2 µM | 84.4 µM | 77.7 µM | 46.8 µM | > 100 µM | > 100 µM |  |  |  |  |  |  |  |  |  | 
CCOC(=O)C(Cc1ccc(N(CCCl)CCCl)cc1)NC(=O)C(Cc1ccccc1)NC=O (stereo not given) | 0.502 µM | 0.241 µM | 0.254 µM | 0.727 µM | 0.273 µM | 0.384 µM | 0.355 µM | 0.406 µM | 0.535 µM | 0.226 µM |  |  |  |  |  |  |  |  |  | 
N#CC1=C(N)Oc2c(ccc3ccccc23)C1c1cc(=O)oc2ccc(Cl)cc12 (stereo not given) | 22.1 µM | 24.1 µM | 41.1 µM | > 100 µM | > 100 µM | 42.2 µM | 14.4 µM | > 100 µM | 23.8 µM | 1.93 µM | 0.347 µM | 0.646 µM | 0.47 µM | 1.38 µM | 1.82 µM | 0.805 µM | 0.484 µM | 0.495 µM | 0.406 µM | 0.217 µM
Nc1nc2c(C(=O)NCc3cccs3)nnn2c2cccc(Cl)c12 | > 100 µM | 50.7 µM | > 100 µM | > 100 µM | > 100 µM | > 100 µM | > 100 µM | > 100 µM | > 100 µM | > 100 µM |  |  |  |  |  |  |  |  |  | 
C#Cc1cccc(Nc2nc(Cl)nc3cc(NC(=O)CCl)ccc23)c1 | 3.12 µM | 1.65 µM | 3.26 µM | 8.51 µM | 3.15 µM | 6.32 µM | 3.36 µM | 4.71 µM | 0.975 µM | 3.38 µM | 0.61 µM | 0.556 µM | 0.82 µM | 3.66 µM | 0.823 µM | 3.13 µM | 1.04 µM | 1.05 µM | 0.449 µM | 0.857 µM
CN=C1C=CC(=C(c2ccc(N(C)C)cc2)c2ccc(N(C)C)cc2)C=C1 | 1.05 µM | 2.1 µM | 1.39 µM | 1.38 µM | 1.21 µM | 0.734 µM | 0.364 µM | 1.09 µM | 1.09 µM | 0.583 µM | 0.308 µM | 0.292 µM | 0.297 µM | 0.048 µM | 0.317 µM | 0.193 µM | 0.182 µM | 0.286 µM | 0.116 µM | 0.207 µM
C=C1C(O)C2CC(C)(CO)C(=O)C2=C(CC(C)C)C12CC2 (stereo not given) | > 100 µM | > 100 µM | > 100 µM | > 100 µM | > 100 µM | > 100 µM | > 100 µM | > 100 µM | > 100 µM | > 100 µM | 63.9 µM | > 100 µM | 78.6 µM | 59.8 µM | > 100 µM | > 100 µM | 82.8 µM | 56 µM | 38.7 µM | > 100 µM
O=C(Nc1ccccc1I(=O)=O)C1CCCCC1 | > 100 µM | > 100 µM | > 100 µM | > 100 µM | > 100 µM | > 100 µM | > 100 µM | > 100 µM |  | > 100 µM | > 100 µM | 58.5 µM | > 100 µM | > 100 µM | > 100 µM | > 100 µM | > 100 µM | > 100 µM |  | > 100 µM
CN1Cc2ccccc2/C=C\c2ccccc21 | 67.9 µM | > 100 µM | > 100 µM | > 100 µM | > 100 µM | > 100 µM | > 100 µM | > 100 µM | > 100 µM | > 100 µM |  |  |  |  |  |  |  |  |  | 
COc1ccc(-c2cncn2-c2cc(OC)c(OC)c(OC)c2)cc1 | > 34.8 µM | > 100 µM | > 33.7 µM | > 63.8 µM | 18.2 µM | 17.5 µM | 5.25 µM | > 40 µM | 4.78 µM | 21.3 µM |  | 3.12 µM | 0.124 µM | 0.471 µM | 0.0936 µM | 0.103 µM | 0.0523 µM | 0.552 µM |  | 0.448 µM
CS(=O)(=O)c1ccc(Nc2nc(N[C@H]3CCCC[C@H]3N)nc3cc[nH]c(=O)c23)cc1 | 13.4 µM | 77.6 µM | 3.5 µM | > 100 µM | 72.9 µM | 12.4 µM | 3.25 µM | > 100 µM | 16.8 µM | 3.04 µM | 0.326 µM | 0.891 µM | 1.5 µM | 3.87 µM | 19.7 µM | 3.31 µM | 1.53 µM | 2.46 µM | 0.615 µM | 1.03 µM
